Results taken from ChEMBL document CHEMBL5338779, “Discovery, Synthesis, and In Vitro Characterization of 2,3 Derivatives of 4,5,6,7-Tetrahydro-Benzothiophene as Potent Modulators of Retinoic Acid Receptor-Related Orphan Receptor γt” (J Med Chem, 2023).
≈ marks a conversion by molar mass, not a printed value. Calls of active or inactive are those of the source. The rule behind the calls is not given here.

Columns and labels:
[1] = Lipophilicity, logD of the compound at pH 7.4; conditions: buffer
[2] = physchem; conditions: PBS, pH 7.4
[3] = biological target: T1, Nuclear receptor ROR-gamma (Homo sapiens) (UniProt P51449); conditions: HEK293T, filed as inverse agonist, dose 0.004-1000 nM
T1 sequence (whole entry): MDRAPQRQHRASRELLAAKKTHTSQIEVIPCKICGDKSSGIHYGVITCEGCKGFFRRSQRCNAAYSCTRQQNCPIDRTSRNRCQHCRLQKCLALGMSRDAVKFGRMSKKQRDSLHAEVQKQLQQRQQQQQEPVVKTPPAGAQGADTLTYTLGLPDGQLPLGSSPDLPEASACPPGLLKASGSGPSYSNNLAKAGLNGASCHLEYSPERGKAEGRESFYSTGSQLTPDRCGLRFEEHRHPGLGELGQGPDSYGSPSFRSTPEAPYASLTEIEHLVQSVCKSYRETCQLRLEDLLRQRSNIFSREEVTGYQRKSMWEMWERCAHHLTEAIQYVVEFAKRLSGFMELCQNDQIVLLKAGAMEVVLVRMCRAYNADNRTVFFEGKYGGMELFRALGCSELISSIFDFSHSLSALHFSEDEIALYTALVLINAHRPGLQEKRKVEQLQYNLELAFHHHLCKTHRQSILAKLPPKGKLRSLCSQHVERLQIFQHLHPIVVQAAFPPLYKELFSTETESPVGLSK

[4] = biological target: T2, Nuclear receptor ROR-gamma (Homo sapiens, UniProt P51449); assay: biochemical; format: cell-based, Insect cell
T2 sequence (P51449 whole entry): T1 sequence (whole entry)

[5] = physchem; conditions: citrate buffer, pH 5
[6] = Efflux ratio of apparent permeability from apical to basolateral side over basolateral to apical side in MDCKII-MDR1 cells at 10 uM incubated for 90 mins in presence of cyclosporine A by LC-MS/MS analysis; conditions: dog, mdck-mdr1, 1.5 h
[7] = physchem; conditions: fasted state simulated gastric fluid, pH 1.6
[8] = Apparent permeability across apical to basolateral side in MDCKII-MDR1 cells at 10 uM incubated for 90 mins by LC-MS/MS analysis; conditions: dog, mdck-mdr1, 1.5 h
[9] = Substrate activity at P-gp in MDCKII-MDR1 cells assessed as efflux ratio of apparent permeability from apical to basolateral side over basolateral to apical side at 10 uM incubated for 90 mins by LC-MS/MS analysis; conditions: dog, mdckii-mdr1, 1.5 h
[10] = Apparent permeability across apical to basolateral side in human Caco-2 cells measured after 90 mins by LC-MS/MS analysis; conditions: caco-2, 1.5 h
[11] = buffer, pH 7.4, 2 h
[12] = tested on: PBMC; assay: Induction of apoptosis in human PBMC cells by flow cytometry method; format: toxicity, cell-based
[13] = tested on: PBMC; assay: Cytotoxicity against human PBMC cells assessed as cell death by flow cytometry method; format: toxicity, cell-based
[14] = biological target: T1, Nuclear receptor ROR-gamma (Homo sapiens); assay: Inverse agonist activity at RORgammaT in human PBMC cells assessed as reduction in IL22-positive T cells in Th17 polarization at 10 nM incubated for 48 hrs; format: cell-based
[15] = tested on: PBMC; assay: Cytotoxicity against human PBMC cells assessed as increase in cell proliferation by flow cytometry method; format: toxicity, cell-based
[16] = tested on: PBMC; assay: Cytotoxicity against human PBMC cells assessed as reduction in cell viability by flow cytometry method; format: toxicity, cell-based
[17] = biological target: T1, Nuclear receptor ROR-gamma (Homo sapiens); assay: Inverse agonist activity at RORgammaT in human PBMC cells assessed as reduction in IFNgamma-positive T cells in Th17 polarization at 10 nM incubated for 48 hrs; format: cell-based
[18] = biological target: T1, Nuclear receptor ROR-gamma (Homo sapiens); assay: Inverse agonist activity at RORgammaT in human PBMC cells assessed as reduction in CD4-positive IL17A-positive cells in Th17 polarization at 10 nM incubated for 48 hrs relative to control; format: cell-based; design: scale not given: the % may be the effect or the level left
[19] = biological target: T1, Nuclear receptor ROR-gamma (Homo sapiens); assay: Inverse agonist activity at RORgammaT in human PBMC cells assessed as reduction in CD4-positive IL21-positive cells in Th17 polarization at 10 nM incubated for 48 hrs relative to control; format: cell-based; design: scale not given: the % may be the effect or the level left

Row | logD [1] | solubility kinetic at 2 h [2] [µM] | deltaG [3] [kcal/mol] | IC50 [4] [nM] | solubility kinetic at 2 h [5] [µM] | solubility kinetic at 2 h [7] [µM] | Papp [8] | Papp [10] | SMILES | also measured
1 | 2.85 | 90.9 (≈ 32.2 µg/mL) | – | – | – | – | – | – | C[C@@H](C#N)NC(=O)c1c(NC(=O)c2cccnc2)sc2c1CCCC2 | –
2 | 0.4 | 84.7 (≈ 33.8 µg/mL) | -7.29 | 57.3 | – | – | – | – | O=C(Nc1sc2c(c1C(=O)NCC1CCNCC1)CCCC2)c1cccnc1 | –
3 | 5.06 | 10.6 (≈ 4.83 µg/mL) | – | – | – | – | – | – | CN1CCN(C(=O)c2c(NC(=O)c3ccccc3F)sc3c2CCC(C(C)(C)C)C3)CC1 (stereo not drawn) | –
4 | 3 | 34.8 (≈ 13.9 µg/mL) | – | – | – | – | – | – | CC1(C)CCc2c(sc(NC(=O)c3cnccn3)c2C(=O)N2CCOCC2)C1 | –
5 | 3.68 | 31.3 (≈ 11.6 µg/mL) | -7.57 | 3.51 | 392 (≈ 145 µg/mL) | ≥ 400 | 29 10^-6 cm/s | 34.2 10^-6 cm/s | CC1CCCN1C(=O)c1c(NC(=O)c2cccnc2)sc2c1CCCC2 (stereo not drawn) | Ratio [6]: 0.8; Ratio [9]: 0.8
6 | 1.62 | 93.6 (≈ 37.1 µg/mL) | -13.3 | 3.43 | – | – | – | – | Cn1cnc(CNC(=O)c2c(NC(=O)c3cccnc3)sc3c2CCCC3)n1 | –
7 | 4.57 | 12.4 (≈ 5.29 µg/mL) | – | – | 3.02 (≈ 1.29 µg/mL) | 364 (≈ 155 µg/mL) | 1.3 10^-6 cm/s | 1.2 10^-6 cm/s | CC1CCN(CC(=O)Nc2sc3c(c2C(=O)NCc2ccccc2)CCCC3)CC1 | –
8 | 3.94 | ≤ 1 | -10.1 | 16.6 | – | – | – | – | Cc1cnc(S(C)(=O)=O)nc1C(=O)Nc1sc2c(c1C(=O)c1ccccc1)CCCC2 | –
9 | 4.92 | 3.23 (≈ 1.46 µg/mL) | -10.2 | 0.69 | – | – | – | – | Cc1ccnc(SCC(=O)Nc2sc3c(c2C(=O)NCc2ccccc2)CCCC3)n1 | –
10 | 4.72 | ≤ 1 | – | – | 8.13 (≈ 3.44 µg/mL) | 2.8 (≈ 1.18 µg/mL) | 3.2 10^-6 cm/s | 1.8 10^-6 cm/s | CCC1CCc2c(sc(NC(=O)c3ccnn3C)c2C(=O)Nc2ccccc2C)C1 (stereo not drawn) | –
11 | 4.44 | 8.05 (≈ 3.55 µg/mL) | – | – | 13.6 (≈ 5.97 µg/mL) | 267 (≈ 118 µg/mL) | 27.8 10^-6 cm/s | 18 10^-6 cm/s | Cn1ccnc1SCC(=O)Nc1sc2c(c1C(=O)NCc1ccccc1)CCCC2 | –
12 | 3.59 | 27.7 (≈ 11.5 µg/mL) | – | – | 349 (≈ 145 µg/mL) | ≥ 400 | 28.9 10^-6 cm/s | 28.2 10^-6 cm/s | CC1CCc2c(sc(NC(=O)c3ccccc3F)c2C(=O)N2CCN(C)CC2)C1 (stereo not drawn) | –
13 | 4.05 | 32.9 (≈ 12.6 µg/mL) | – | – | – | – | – | – | CCC1CCN(C(=O)c2c(NC(=O)c3cccnc3)sc3c2CCCC3)C1 (stereo not drawn) | –
14 | 4.15 | 18.3 (≈ 6.67 µg/mL) | -10.1 | 19.6 | – | – | – | – | O=C(Nc1sc2c(c1C(=O)c1ccccc1)CCCC2)c1cnccn1 | –
15 | 2.6 | 79.3 (≈ 30.6 µg/mL) | -6.16 | 45.8 | 365 (≈ 141 µg/mL) | 330 (≈ 127 µg/mL) | 5.2 10^-6 cm/s | 4.4 10^-6 cm/s | O=C(Nc1sc2c(c1C(=O)N1CCC(CO)C1)CCCC2)c1cccnc1 (stereo not drawn) | Ratio [6]: 1.4; Ratio [9]: 4.7
16 | 4.43 | 28.8 (≈ 11 µg/mL) | -10.2 | 2.07 | – | – | – | – | O=C(NCc1ccccc1)c1c(NC(=O)C(F)(F)F)sc2c1CCCC2 | –
17 | 3.06 | 99.3 (≈ 42.4 µg/mL) | -12.5 | 1.17 | 357 (≈ 152 µg/mL) | ≥ 400 | 6.8 10^-6 cm/s | 4.6 10^-6 cm/s | CN1CCN(CC(=O)Nc2sc3c(c2C(=O)NCc2ccccc2)CCCC3)CC1 | Ratio [6]: 1.2; Ratio [9]: 1.1
18 | 4.11 | – | – | 1.71 | – | – | – | – | CCc1ccc(N(CC(C)C)S(=O)(=O)c2ccc(OCC3CCOCC3)c(CO)c2)cc1 [GSK2981278] | Kinetic_solubility [11]: Insoluble
19 | 4.33 | 19.7 (≈ 8.11 µg/mL) | -10.3 | 2.15 | – | – | – | – | O=C(CN1CCCCC1)Nc1sc2c(c1C(=O)NCc1ccccc1)CCCC2 | –
20 | 5.45 | ≤ 1 | -11.6 | 0.4 | – | – | 8 10^-6 cm/s | 4.2 10^-6 cm/s | CSc1ncc(Cl)c(C(=O)Nc2sc3c(c2C(=O)NCc2ccccc2)CCCC3)n1 | Activity [12]: Non-Toxic; Activity [13]: Non-Toxic; Ratio [6]: 0.3; Activity [14]: inactive; Activity [15]: Non-Toxic; Activity [16]: Non-Toxic; Activity [17]: inactive; Ratio [9]: 0.3; Activity [18]: 20%; Activity [19]: 20%
21 | 3.28 | 40.2 (≈ 20.7 µg/mL) | -9.75 | 4.45 | 9.72 (≈ 5.01 µg/mL) | 1.7 (≈ 0.876 µg/mL) | 2.5 10^-6 cm/s | 1.4 10^-6 cm/s | CSc1ncc(Cl)c(C(=O)Nc2sc3c(c2C(=O)NC2CCS(=O)(=O)C2)CCC(C)C3)n1 (stereo not drawn) | Ratio [6]: 1.1; Ratio [9]: 8.7
22 | 4.45 | 27 (≈ 10.7 µg/mL) | – | – | 23.7 (≈ 9.43 µg/mL) | ≥ 200 | – | – | C[C@@H]1CCN(C(=O)c2c(NC(=O)c3cccnc3)sc3c2CCCC3)[C@H](C)C1 (single isomer, unassigned) | –
